This is an account of results in patent US20240327408A1, “COMPOUNDS CONTAINING TETRAHYDRONAPHTHYRIDINONE OR TETRAHYDROPYRIDOPYRIMIDINONE SKELETON, PREPARATION METHOD THEREFOR AND PHARMACEUTICAL USE THEREOF” (CHINA PHARMACEUTICAL UNIVERSITY, priority 2021, published 2024).

Structures are written as SMILES. Where only a bound is given, the exact number is not on record here.

The target in one assay is T1, hClpP (Homo sapiens, UniProt Q16740).
T1 construct: made in house
The experiment in a line: activating ClpP hydrolysis of FITC-casein (fluorescence kinetic detection). It counts as biochemical. As to conditions: hClpP 1 μM, FITC-Casein 4 μM, 37° C. Here is the method:
The specific procedures were as follows:
Test compounds were each prepared into a 100 mM stock solution in DMSO and stored. and 1 μL of stock solution of each of the compounds was taken and diluted to 10 mM by adding 9 μL of DMSO for later use.
The compounds of formula I of the present invention were each diluted at concentrations of 200 μM, 50 μM, 10 μM, 2 μM, 500 nM, 100 nM, 20 nM, and 2 nM in an assay buffer. 50 μL of each of the compounds at different concentrations was added to each well, with 2 replicate wells.
The protein was diluted to 4 μM in an assay buffer. 25 μL of protein was added to each well, and incubated at 37° C. for 30 min. The final concentration was 1 μM.
25 μL of FITC-Casein was added to each well. The final concentration was 4 μM. The mixture was immediately loaded on the machine for detection.
FITC-Casein and FITC-Casein+ClpP were used as negative controls.
The detection temperature was 37° C. The plate was shaken for 3 s. […] Kinetic parameters were set, and scanning was performed once every 1 min for 15 min.

Another assay has as its system MV4; 11 cells. The experiment in a line: inhibiting the growth of MV4; 11 cells. The format is cell-based. To be noted: Homo sapiens.

T1 sequence (Q16740 57-277): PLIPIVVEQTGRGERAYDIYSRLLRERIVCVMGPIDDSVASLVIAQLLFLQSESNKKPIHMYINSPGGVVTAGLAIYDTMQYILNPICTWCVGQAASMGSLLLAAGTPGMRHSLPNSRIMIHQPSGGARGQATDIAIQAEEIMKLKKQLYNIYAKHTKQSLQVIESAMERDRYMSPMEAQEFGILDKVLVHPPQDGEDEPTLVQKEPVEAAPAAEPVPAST

Turning to `N#Cc1cccc(CN2CCc3c(c(=O)n(Cc4ccc(C(F)(F)F)cc4)c4nccn34)C2)c1` [Compound I-131, 7-(3-cyanobenzyl)-4-(4-trifluoromethylbenzyl)-6,7,8,9-tetrahydroimidazo[1,2-a]pyrido[3,4-e]pyrimidine-5(4H)-one], the EC50 at hClpP was under 1 µM. Besides, in the assay on MV4; 11 cells, the IC50 is under 1 µM.

`Cc1ncc(CN2CCc3c(c(=O)n(Cc4ccccc4)c4ncccc34)C2)s1` [Compound I-35, 6-benzyl-3-((2-methylthiazol-5-yl)methyl)-2,3,4,6-tetrahydropyrido[3,4-c][1,8]naphthyridine-5-(1H)-one] had an EC50 on hClpP of 10 to 100 µM. Moreover, the IC50 in the assay on MV4; 11 cells was in the range of 1 to 10 µM.

With `O=c1c2c(n3ccnc3n1Cc1ccccc1)CCN(Cc1ccccc1)C2` [Compound I-107, 4,7-dibenzyl-6,7,8,9-tetrahydroimidazo[1,2-a]pyrido[3,4-e]pyrimidine-5(4H)-one], the concentration for a half-maximal effect (EC50) on hClpP is 1 to 10 µM. For the same molecule, in the assay on MV4; 11 cells, the IC50 fell in the range of 1 to 10 µM.

In turn, `Cn1ccnc1CN1CCc2c(c(=O)n(Cc3ccccc3)c3ncccc23)C1` [Compound I-31, 6-benzyl-3-((1-methyl-1H-imidazol-2-yl)methyl)-2,3,4,6-tetrahydropyrido[3,4-c][1,8]naphthyridine-5-(1H)-one] came in with a concentration giving a half-maximal response (EC50) on hClpP of 10 to 100 µM. In addition, in the assay on MV4; 11 cells, the IC50 lay in the range of 1 to 10 µM.

Consider `O=c1c2c(c3cccnc3n1Cc1ccccc1)CCN(Cc1ccccn1)C2` [Compound I-27, 6-benzyl-3-(pyridin-2-ylmethyl)-2,3,4,6-tetrahydropyrido[3,4-c][1,8]naphthyridine-5-(1H)-one], for which, at hClpP, the EC50 was in the range of 10 to 100 µM. In addition, in the assay with MV4; 11 cells, the IC50 was in the range of 1 to 10 µM.

On to `N#Cc1cccc(CN2CCc3c(c(=O)n(Cc4ccc(Br)cc4)c4ncccc34)C2)c1` [Compound I-86, 6-(4-bromobenzyl)-3-(3-cyanobenzyl)-2,3,4,6-tetrahydropyrido[3,4-c][1,8]naphthyridine-5-(1H)-one], for which the concentration giving a half-maximal response (EC50) at hClpP was under 1 µM. Further, in the assay on MV4; 11 cells, the IC50 was under 1 µM.

In the case of `O=c1c2c(c3cccnc3n1Cc1ccccc1)CCN(Cc1ccc(F)cc1)C2` [Compound I-18, 6-benzyl-3-(4-fluorobenzyl)-2,3,4,6-tetrahydropyrido[3,4-c][1,8]naphthyridine-5-(1H)-one], the 50% effective concentration (EC50) at hClpP lay within 1 to 10 µM. The IC50 in the assay with MV4; 11 cells is under 1 µM.

On hClpP, `N#Cc1cccc(CN2CCc3c(c(=O)n(Cc4ccc(C(F)(F)F)cc4)c4ccnn34)C2)c1` [Compound I-160, 4-(4-trifluoromethylbenzyl)-7-(3-cyanobenzyl)-6,7,8,9-tetrahydropyrazolo[1,5-a]pyrido[3,4-e]pyrimidine-5(4H)-one] displayed an EC50 of 1 to 10 µM. In the assay with MV4; 11 cells, the half-maximal inhibitory concentration (IC50) is 1 to 10 µM.

Molecule `Cc1ccc(Cn2c(=O)c3c(c4cccnc42)CCN(Cc2ccccc2)C3)cc1` [Compound I-55, 3-benzyl-6-(4-methylbenzyl)-2,3,4,6-tetrahydropyrido[3,4-c][1,8]naphthyridine-5-(1H)-one] returned a half-maximal effective concentration (EC50) at hClpP of under 1 µM. Further, the IC50 in the assay with MV4; 11 cells is under 1 µM.

Consider `COc1ccc(Cn2c(=O)c3c(c4cccnc42)CCN(Cc2cccc(F)c2)C3)cc1` [Compound I-99, 6-(4-methoxybenzyl)-3-(3-fluorobenzyl)-2,3,4,6-tetrahydropyrido[3,4-c][1,8]naphthyridine-5-(1H)-one], for which the EC50 on hClpP is under 1 µM. In addition, the IC50 with MV4; 11 cells is under 1 µM.

Molecule `CCc1ccc(Cn2c(=O)c3c(n4ccnc24)CCN(Cc2cccc(C#N)c2)C3)cc1` [Compound I-141, 7-(3-cyanobenzyl)-4-(4-ethylbenzyl)-6,7,8,9-tetrahydroimidazo[1,2-a]pyrido[3,4-e]pyrimidine-5(4H)-one] yielded an EC50 on hClpP of under 1 µM. Moreover, the 50% inhibitory concentration (IC50) with MV4; 11 cells is under 1 µM.

`O=c1c2c(c3cscc3n1Cc1ccc(C(F)(F)F)cc1)CCN(Cc1ccccc1)C2` [Compound I-102, 7-benzyl-4-(4-trifluoromethylbenzyl)-6,7,8,9-tetrahydrothieno[3,4-C][2,7]naphthyridine-5(4H)-one] registered a concentration giving a half-maximal response (EC50) at hClpP of under 1 µM. Moreover, the IC50 with MV4; 11 cells was under 1 µM.

In turn, `Cc1ccc(Cn2c(=O)c3c(n4ccnc24)CCN(Cc2cccc(Cl)c2)C3)cc1` [Compound I-134, 7-(3-chlorobenzyl)-4-(4-methylbenzyl)-6,7,8,9-tetrahydroimidazo[1,2-a]pyrido[3,4-e]pyrimidine-5(4H)-one] showed a concentration for a half-maximal effect (EC50) on hClpP of under 1 µM. This molecule also gave an IC50 in the assay with MV4; 11 cells of under 1 µM.

On to `COc1ccc(Cn2c(=O)c3c(n4ccnc24)CCN(Cc2cccc(C#N)c2)C3)cc1` [Compound I-146, 7-(3-cyanobenzyl)-4-(4-methoxybenzyl)-6,7,8,9-tetrahydroimidazo[1,2-a]pyrido[3,4-e]pyrimidine-5(4H)-one], for which the EC50 on hClpP was under 1 µM. In the assay with MV4; 11 cells, this molecule came in with an IC50 of under 1 µM.

The molecule `Cc1ccc(Cn2c(=O)c3c(n4ccnc24)CCN(Cc2ccccc2)C3)cc1` [Compound I-132, 7-benzyl-4-(4-methylbenzyl)-6,7,8,9-tetrahydroimidazo[1,2-a]pyrido[3,4-e]pyrimidine-5(4H)-one] gave an EC50 at hClpP of under 1 µM. The same molecule had a half-maximal inhibitory concentration (IC50) in the assay with MV4; 11 cells of under 1 µM.

For the molecule `Cn1cnc(Cn2c(=O)c3c(c4cccnc42)CCN(Cc2ccccc2)C3)c1` [Compound I-66, 3-benzyl-6-((1-methyl-1H-imidazol-4-yl)methyl)-2,3,4,6-tetrahydropyrido[3,4-c][1,8]naphthyridine-5-(1H)-one], the half-maximal effective concentration (EC50) at hClpP was in the range of 10 to 100 µM. This molecule also displayed an IC50 with MV4; 11 cells of 1 to 10 µM.

`O=c1c2c(n3ncnc3n1Cc1ccc(Cl)cc1)CCN(Cc1ccccc1)C2` [Compound I-152, 4-(4-chlorobenzyl)-7-benzyl-6,7,8,9-tetrahydropyrido[3,4-e][1,2,4]triazolo[1,5-a]pyrimidine-5(4H)-one]: at hClpP, the EC50 lay within 1 to 10 µM. In the assay on MV4; 11 cells, this molecule gave a 50% inhibitory concentration (IC50) of 1 to 10 µM.

`N#Cc1cccc(CN2CCc3c(c(=O)n(Cc4ccccc4)c4ccnn34)C2)c1` [Compound I-157, 4-benzyl-7-(3-cyanobenzyl)-6,7,8,9-tetrahydropyrazolo[1,5-a]pyrido[3,4-e]pyrimidine-5(4H)-one] returned an EC50 at hClpP of 1 to 10 µM. Further, the 50% inhibitory concentration (IC50) in the assay on MV4; 11 cells fell in the range of 1 to 10 µM.

Turning to `CCc1cccc(Cn2c(=O)c3c(c4cccnc42)CCN(Cc2ccccc2)C3)c1` [Compound I-50, 3-benzyl-6-(3-ethylbenzyl)-2,3,4,6-tetrahydropyrido[3,4-c][1,8]naphthyridine-5-(1H)-one], at hClpP, the concentration for a half-maximal effect (EC50) is under 1 µM. In addition, in the assay with MV4; 11 cells, the IC50 is under 1 µM.

For `N#Cc1cccc(CN2CCc3c(c(=O)n(Cc4ccc(Cl)cc4)c4ncccc34)C2)c1` [Compound I-85, 6-(4-chlorobenzyl)-3-(3-cyanobenzyl)-2,3,4,6-tetrahydropyrido[3,4-c][1,8]naphthyridine-5-(1H)-one], the half-maximal effective concentration (EC50) at hClpP was under 1 µM. Moreover, the concentration for half-maximal inhibition (IC50) in the assay with MV4; 11 cells is under 1 µM.

In the case of `O=c1c2c(c3cccnc3n1Cc1ccccc1F)CCN(Cc1ccccc1)C2` [Compound I-40, 3-benzyl-6-(2-fluorobenzyl)-2,3,4,6-tetrahydropyrido[3,4-c][1,8]naphthyridine-5-(1H)-one], the EC50 on hClpP fell in the range of 1 to 10 µM. Moreover, the half-maximal inhibitory concentration (IC50) with MV4; 11 cells is under 1 µM.

`O=c1c2c(n3ccnc3n1Cc1ccc(F)cc1)CCN(Cc1ccccc1)C2` [Compound I-112, 7-benzyl-4-(4-fluorobenzyl)-6,7,8,9-tetrahydroimidazo[1,2-a]pyrido[3,4-e]pyrimidine-5(4H)-one] yielded a concentration for a half-maximal effect (EC50) on hClpP of under 1 µM. This molecule also displayed a 50% inhibitory concentration (IC50) in the assay on MV4; 11 cells of under 1 µM.

Consider `Cn1cncc1CN1CCc2c(c(=O)n(Cc3ccccc3)c3ncccc23)C1` [Compound I-33, 6-benzyl-3-((1-methyl-1H-imidazol-5-yl)methyl)-2,3,4,6-tetrahydropyrido[3,4-c][1,8]naphthyridine-5-(1H)-one], for which the EC50 on hClpP is 10 to 100 µM. Further, in the assay on MV4; 11 cells, the IC50 lay within 1 to 10 µM.

With `O=c1c2c(n3ccnc3n1Cc1ccc(F)cc1F)CCN(Cc1cccc(F)c1)C2` [Compound I-123, 7-(3-fluorobenzyl)-4-(2,4-difluorobenzyl)-6,7,8,9-tetrahydroimidazo[1,2-a]pyrido[3,4-e]pyrimidine-5(4H)-one], the EC50 at hClpP was under 1 µM. In addition, the IC50 with MV4; 11 cells is under 1 µM.

For `O=c1c2c(n3ncnc3n1Cc1ccc(Cl)cc1)CCN(Cc1cccc(F)c1)C2` [Compound I-153, 4-(4-chlorobenzyl)-7-(3-fluorobenzyl)-6,7,8,9-tetrahydropyrido[3,4-e][1,2,4]triazolo[1,5-a]pyrimidine-5(4H)-one], at hClpP, the EC50 fell in the range of 1 to 10 µM. Besides, in the assay on MV4; 11 cells, the IC50 fell in the range of 1 to 10 µM.

Take `O=c1c2c(n3ccnc3n1Cc1ccc(Cl)cc1)CCN(Cc1cccc(F)c1)C2` [Compound I-118, 7-(3-fluorobenzyl)-4-(4-chlorobenzyl)-6,7,8,9-tetrahydroimidazo[1,2-a]pyrido[3,4-e]pyrimidine-5(4H)-one]: the EC50 on hClpP was under 1 µM. In the assay on MV4; 11 cells, this molecule showed a concentration for half-maximal inhibition (IC50) of under 1 µM.

Molecule `O=c1c2c(c3cccnc3n1Cc1ccc(Cl)cc1)CCN(Cc1cccc(F)c1)C2` [Compound I-74, 3-(3-fluorobenzyl)-6-(4-chlorobenzyl)-2,3,4,6-tetrahydropyrido[3,4-c][1,8]naphthyridine-5-(1H)-one] returned a 50% effective concentration (EC50) at hClpP of under 1 µM. Further, in the assay on MV4; 11 cells, the IC50 is under 1 µM.

On to `O=c1c2c(c3cccnc3n1CC1CCCCC1)CCN(Cc1ccccc1)C2` [Compound I-39, 3-benzyl-6-(cyclohexylmethyl)-2,3,4,6-tetrahydropyrido[3,4-c][1,8]naphthyridine-5-(1H)-one], for which the EC50 on hClpP is 10 to 100 µM. This molecule also displayed an IC50 with MV4; 11 cells of 0.91 µM.
